From patent publication US10800789B2, “Antiviral compounds” (Gilead Pharmasset LLC, priority 2012, dated 2020)
Where two headings read alike, the source gives them in different places.

Tests used:
[1] = system: stable HCV 1b RLuc replicon cells (dicistronic genotype 1b Con1 replicon); experiment: Renilla luciferase HCV replicon reporter assay, genotype 1b; type: cell-based; conditions: Hepatitis C virus, 72 h, stable 1b Con1 RLuc replicon cells, 72 hours; read-out: 1b
Summary of the method: (§1)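 72 h compound exposure (3-fold dilutions from 10 mM DMSO stocks) of replicon cells: stable dicistronic RLuc 1a H77, 1b Con1, 2a JFH-1 (NS5A L31); J6-NS5A chimera in JFH-1 (M31), transient in Huh-Lunet or stable. Renilla luciferase read-out, non-linear regression → EC50. DMSO negative control.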

[2] = system: stable HCV 1a RLuc replicon cells (dicistronic genotype 1a H77 replicon); experiment: Renilla luciferase HCV replicon reporter assay, genotype 1a; type: cell-based; conditions: Hepatitis C virus, 72 h, stable 1a H77 RLuc replicon cells
Summary of the method: as §1

[3] = system: Q30R in genotype 1a NS5A (1a Pi-Rluc replicon, Huh-7-derived cured-51 cells); experiment: Replicon assay against resistance mutant 1a Q30R; type: cell-based, HCV; conditions: Hepatitis C virus
Summary of the method: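 Q30R introduced by site-directed mutagenesis into the 1a Pi-RLuc replicon; replicon RNA transiently transfected into cured-51 cells. Cells treated with 3-fold serially diluted compound for 72 h, then lysed and Renilla luciferase measured; EC50 by non-linear regression.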

[4] = system: stable HCV 2a JFH-1 Rluc replicon cells (L31 present in NS5A); experiment: Renilla luciferase HCV replicon reporter assay, genotype 2a JFH-1; type: cell-based
Summary of the method: as §1

[5] = system: NS5A chimeric genotype 2a JFH-1 replicon with genotype 2a J6 strain NS5A gene (M31 present); experiment: Replicon assay, genotype 2a J6 NS5A chimera; type: cell-based, HCV
Summary of the method: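 Antiviral EC50 was determined in HCV replicon cells (stable RLuc lines for 1a H77, 1b Con1, 2a JFH-1 with NS5A L31; J6 NS5A chimera with M31) treated 72 h with compound. Renilla luciferase was then quantified.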

[6] = system: NS5A chimeric genotype 2a JFH-1 replicon with genotype 2b MD2b-1 strain NS5A gene (M31 present); experiment: Replicon assay, genotype 2b NS5A chimera; type: cell-based, HCV
Summary of the method: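 EC50 was fitted by non-linear regression to Renilla luciferase signal after 72 h of exposure to 3-fold serially diluted compound (10 mM DMSO stocks). Controls were DMSO (none) and ITMN-191 above 100×EC50 (full). Chimeric 2a replicons were used either stable or transiently transfected into Huh-Lunet cells.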

[7] = system: NS5A chimeric genotype 1b Con1 replicon with genotype 3a S52 strain NS5A gene; experiment: Replicon assay, genotype 3a NS5A chimera; type: cell-based, HCV
[8] = system: NS5A chimeric genotype 1b Con1 replicon with genotype 4a ED43 strain NS5A gene; experiment: Replicon assay, genotype 4a NS5A chimera; type: cell-based, HCV; conditions: Hepatitis C virus
[9] = IV and PO single dose pharmacokinetic studies in SD rats; type: in vivo, male Sprague-Dawley (SD) rats; conditions: Sprague-Dawley, rat, plasma, male SD rats, PO 2 mg/kg vs IV infusion 1 mg/kg, read-out: Rat % F
Summary of the method: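 Fasted male Sprague-Dawley rats (250-300g, n=3/group) were given 1 mg/kg IV as a 30-min jugular infusion (5% ethanol/35% PEG 400/water pH 2.0) or 2 mg/kg by oral gavage (5% ethanol/55% PEG 400/citrate pH 2.2). Plasma was sampled to 24 h and analysed by LC/MS/MS. Non-compartmental parameters were derived, and %F was calculated from the oral/IV AUC ratio.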

[10] = Hepatitis C virus, read-out: 2a JFH (nM), genotype 2a JFH-1 replicon (L31 in NS5A), stable cells
[11] = Hepatitis C virus, read-out: 2a JFH, stable 2a JFH-1 Rluc replicon cells, L31 in NS5A, activity range
[12] = Hepatitis C virus, read-out: 2a J6 (t) (nM), genotype 2a J6 NS5A chimeric replicon (M31), transiently transfected (t) into Huh-Lunet cells
[13] = Hepatitis C virus, read-out: 2a J6 (t), transiently transfected (t) into Huh-Lunet cells, activity range
[14] = Hepatitis C virus, 2BS, read-out: 2b (s), stably replicating replicon cells (s), activity range
[15] = Hepatitis C virus, read-out: 2b (s) (nM), genotype 2b MD2b-1 NS5A chimeric replicon (M31), stably replicating replicon cells (s)
[16] = Hepatitis C virus, read-out: 3a (s) (nM), genotype 3a NS5A chimeric replicon, stable replicon cells (s)
[17] = Hepatitis C virus, read-out: 3a (s), (s), activity range
[18] = read-out: 4a (s) (nM), genotype 4a NS5A chimeric replicon, stable replicon cells (s)
[19] = read-out: 4a (s), (s), activity range
[20] = Hepatitis C virus, read-out: 2b (t) (nM), genotype 2b MD2b-1 NS5A chimeric replicon (M31), transiently transfected (t)
[21] = Hepatitis C virus, read-out: 2b (t), transiently transfected (t) into Huh-Lunet cells, activity range
[22] = Hepatitis C virus, read-out: 3a (t) (nM), genotype 3a NS5A chimeric replicon, transiently transfected (t)
[23] = Hepatitis C virus, read-out: 3a (t), transiently transfected (t) into Huh-Lunet cells, activity range

In the case of `COC[C@H]1C[C@@H](c2nc(Cl)c(-c3ccc4c(c3)COc3cc5c(ccc6nc([C@@H]7CC[C@H](C)N7C(=O)[C@@H](NC(=O)OC)C(C)C)[nH]c65)cc3-4)[nH]2)N(C(=O)[C@H](NC(=O)OC)c2ccccc2)C1` [FY, Methyl {(1R)-2-[(2S,4S)-2-(4-chloro-5-{2-[(2S,5S)-1-{(2S)-2-[(methoxycarbonyl)amino]-3-methylbutanoyl}-5-methylpyrrolidin-2-yl]-1,11-dihydroisochromeno[4′,3′:6,7]naphtho[1,2-d]imidazol-9-yl}-1H-imidazol-2-yl)-4-(methoxymethyl)pyrrolidin-1-yl]-2-oxo-1-phenylethyl}carbamate], the EC50 [1] is reported as 0.017 nM, the EC50 [2] is reported as 0.01 nM and the EC50 ([2]; activity range) is reported as < 0.1 nM. The EC50 ([3]; read-out: 1a Q30R) was < 0.1 nM, the EC50 ([3]; read-out: 1a Q30R (nM)) was 0.017 nM and the EC50 [4, 10] was 0.007 nM. For the same compound, the EC50 [4, 11] was < 0.1 nM, the EC50 [5, 12] was 0.005 nM and the EC50 [5, 13] was < 0.1 nM. The EC50 [6, 14] was < 0.1 nM, the EC50 [6, 15] was 0.034 nM and the EC50 [7, 16] was 0.029 nM. The EC50 [7, 17] was < 0.1 nM, the EC50 [8, 18] was 0.005 nM and the EC50 [8, 19] was < 0.1 nM. It also gave a bioavailability [9] of 13.5%.

With `COC[C@H]1C[C@@H](c2nc(C3CC3)c(-c3ccc4c(c3)COc3cc5c(ccc6nc([C@@H]7CC[C@H](C)N7C(=O)[C@@H](NC(=O)OC)C(C)C)[nH]c65)cc3-4)[nH]2)N(C(=O)[C@H](NC(=O)OC)c2ccccc2)C1` [FZ, Methyl {(1R)-2-[(2S,4S)-2-(4-cyclopropyl-5-{2-[(2S,5S)-1-{(2S)-2-[(methoxycarbonyl)amino]-3-methylbutanoyl}-5-methylpyrrolidin-2-yl]-1,11-dihydroisochromeno[4′,3′:6,7]naphtho[1,2-d]imidazol-9-yl}-1H-imidazol-2-yl)-4-(methoxymethyl)pyrrolidin-1-yl]-2-oxo-1-phenylethyl}carbamate] the EC50 [1] was 0.031 nM, the EC50 [2] was 0.019 nM and the EC50 ([2]; activity range) was < 0.1 nM. For the same compound, the EC50 ([3]; read-out: 1a Q30R) was < 0.1 nM, the EC50 ([3]; read-out: 1a Q30R (nM)) was 0.048 nM and the EC50 [4, 11] was < 0.1 nM. The EC50 ([4]; read-out: 2a JFH, genotype 2a JFH-1 replicon (L31 in NS5A), stable cells) was 0.025 nM, the EC50 ([5]; read-out: 2a J6 (t), genotype 2a J6 NS5A chimeric replicon (M31), transiently transfected (t) into Huh-Lunet cells) was 0.041 nM and the EC50 ([5]; read-out: 2a J6 (t), transiently transfected (t) into Huh-Lunet cells, activity range) was < 0.1 nM. The EC50 ([6]; read-out: 2b (s), genotype 2b MD2b-1 NS5A chimeric replicon (M31), stably replicating replicon cells (s)) was 0.101 nM, the EC50 ([6]; read-out: 2b (s), stably replicating replicon cells (s), activity range) was 0.1 to 0.999 nM and the EC50 ([7]; read-out: 3a (s), (s), activity range) was < 0.1 nM. For the same compound, the EC50 ([7]; read-out: 3a (s), genotype 3a NS5A chimeric replicon, stable replicon cells (s)) was 0.098 nM, the EC50 [8, 18] was 0.025 nM and the EC50 [8, 19] was < 0.1 nM. For the same compound, the bioavailability [9] was 18.5%.

With `CC[C@H]1CC[C@@H](c2ncc(-c3ccc4c(c3)COc3cc5c(ccc6nc([C@@H]7CC[C@H](C)N7C(=O)[C@@H](NC(=O)OC)C(C)C)[nH]c65)cc3-4)[nH]2)N1C(=O)[C@@H](NC(=O)OC)C1CCOCC1` [HQ] the EC50 [1] was 0.027 nM, the EC50 [2] was 0.022 nM and the EC50 ([2]; activity range) was < 0.1 nM. For the same compound, the EC50 ([3]; read-out: 1a Q30R) was < 0.1 nM, the EC50 ([3]; read-out: 1a Q30R (nM)) was 0.031 nM and the EC50 [4, 10] was 0.024 nM. For the same compound, the EC50 [4, 11] was < 0.1 nM, the EC50 [5, 12] was 0.088 nM and the EC50 [5, 13] was < 0.1 nM. For the same compound, the EC50 [6, 14] was 0.1 to 0.999 nM, the EC50 [6, 15] was 0.233 nM and the EC50 [6, 20] was 0.079 nM. For the same compound, the EC50 [6, 21] was < 0.1 nM, the EC50 [7, 16] was 0.076 nM and the EC50 [7, 17] was < 0.1 nM. The EC50 [7, 22] was 0.049 nM, the EC50 [7, 23] was < 0.1 nM and the EC50 [8, 18] was 0.02 nM. The EC50 [8, 19] was < 0.1 nM and the bioavailability [9] was 34.3%.

For `COC(=O)N[C@H](C(=O)N1[C@@H](C)CC[C@H]1c1ncc(-c2ccc3c(c2)COc2cc4c(ccc5nc([C@@H]6C[C@@H]7CCC[C@@H]7N6C(=O)[C@@H](NC(=O)OC)C6CCOCC6)[nH]c54)cc2-3)[nH]1)C(C)C` [IA], the EC50 [1] was 0.024 nM, the EC50 [2] was 0.015 nM and the EC50 ([2]; activity range) was < 0.1 nM. For the same compound, the EC50 ([3]; read-out: 1a Q30R) was < 0.1 nM, the EC50 ([3]; read-out: 1a Q30R (nM)) was 0.024 nM and the EC50 [4, 10] was 0.021 nM. For the same compound, the EC50 [4, 11] was < 0.1 nM, the EC50 [5, 12] was 0.024 nM and the EC50 [5, 13] was < 0.1 nM. For the same compound, the EC50 [6, 14] was < 0.1 nM, the EC50 [6, 15] was 0.062 nM and the EC50 [6, 20] was 0.033 nM. For the same compound, the EC50 [6, 21] was < 0.1 nM, the EC50 [7, 16] was 0.052 nM and the EC50 [7, 17] was < 0.1 nM. For the same compound, the EC50 [7, 22] was 0.055 nM, the EC50 [7, 23] was < 0.1 nM and the EC50 [8, 18] was 0.019 nM. For the same compound, the EC50 [8, 19] was < 0.1 nM and the bioavailability [9] was 21.8%.
